Experimental data reported in patent US10428028B2, “HDAC inhibitors” (BIOMARIN PHARMACEUTICAL INC., priority 2013, dated 2019).
pIC50: −log10 of the molar value. Where two headings read alike, the source gives them in different places.

Legend:
[1] = Acid stability determination; assay type: physicochemical; conditions: 0.01 M HCl, 50° C., 100 μM
Procedure: A 100 μM solution of test compound was prepared by dilution of a 10 mM DMSO stock solution in a 0.01 M solution of HCl in deionized water. Immediately after mixing, an aliquot (100 μL) was sampled and analyzed by HPLC/UV. The area under the compound peak was determined and used as the time zero reference point. The remainder of the acid sample was incubated at 50° C. and samples were taken after 2, 4, and 24 hours of incubation. On a few occasions, samples were taken at 30 rather than 24 hours. These were analyzed by the same HPLC/UV method and the area of the peak corresponding to the test compound was measured. Percent remaining at a given time point was then calculated as the ratio of the area under the peak after incubation to that at time zero times 100. In those cases where a 30 hour time point was recorded, the percent remaining at 24 hours was obtained by interpolation of the percent remaining versus time curve assuming a unimolecular process, i.e. a monoexponential decay. Percent remaining after 24 hours incubation are presented in Table 5 below, where A corresponds to more than 60%, B is between 40 and 60%, C covers 20 to 40% and D means less than 20%.

[2] = Hepatocyte stability and metabolism (parent remaining, acid and OPD formation); assay type: in vitro ADME; conditions: human hepatocytes; for % left 6H Hum hep: 5 μM; for OPD: OPD formation by LC-MS/MS after phenylglyoxal derivatisation
Procedure: The inventors have found, however, that formula (I) compound metabolites are substantially free of OPD when formula (I) compounds are subjected to conditions intended to mimic in vivo metabolism pathways. As used herein, the term “substantially free of OPD” means that OPD was not detected by LC-MS/MS after (i) incubating a formula (I) compound with human, monkey, dog and rat hepatocytes and (ii) treating the metabolite milieu with an acidic solution of phenylglyoxal in an organic solvent (this addition leads to quantitative formation of 2-phenylquinoxaline, which can be easily quantified with a low lower limit of quantitation (LLOQ)). See the Examples section.
To assess the stability and metabolism of RGFP compounds and to quantify the metabolites in hepatocytes. This assay was designed to evaluate the metabolism of RGFP compounds, following their incubation with human, monkey, dog and rat hepatocytes by monitoring either parent drug disappearance or metabolite appearance using LC-MS/MS. The results are shown in Table 5 ((% Left in Hep: IA<10%, 50%<A, 50%>B>30%, 30%>C>10%, ND: not determined).
Procedure: Turn on the water-bath heater to 37° C. Take out the KHB buffer and make sure it is at room temp before use. Prepare 2.5 mM concentration of RGFP compound in DMSO stock. Add 10 μL of above DMSO stock to 2490 μL KHB buffer; final concentration of RGFP compound will be 10 μM. Pre-warm 45 ml InVitro HT Medium to 37° C. in a sterile 50 ml conical tube. Add 1.0 mL Torpedo Antibiotic Mix per 45 mL InVitro HT medium. Transfer 13 mL of warm HT medium with Antibiotic Mix into a 15 mL conical tube. Carefully remove the hepatocyte vials from liquid nitrogen (liquid phase). Immediately immerse the vial into a 37° C. water bath. Shake gently until the ice melts entirely. […] Immediately empty contents of the vial into 13 ml of pre-warmed InVitro HT Medium with antibiotics. Rinse the vial with the HT media just transferred the hepatocytes to, in order to ensure complete transfer. Centrifuge the cell suspension at 600 RPM for 5 minutes at room temperature. […] Add 1.0 ml of KHB (at room temperature) buffer to the tube of hepatocyte pellet. Loosen the cell pellet by gently swirling the centrifuge tube. Transfer 100 μL of above solution to a different tube and add 900 μL of KHB buffer to count the cells. Determine the total cell count and the number of viable cells using the Trypan Blue exclusion method. Once the cell count is obtained, multiply the number by 10 (attributing to the dilution factor). Add required volume of KHB buffer to the tube containing hepatocytes such that the final count will be 2 million cells/mL. Dispense 50 μL of 2 million cells/ml to a 96 well plate and then add 50 μl of DMSO stock to respective wells (such that, the concentration of RGFP compounds is 5 μM and number of cells are 100000 in each well). Place the plates on a shaker in a 37° C. incubator with 5% CO2. Separate plates for each time point are advisable (Time points: 0 h, 1 h, 2 h, and 6 h). After each time point, add 100 μL of quenching solution. Quenching solution is an acetonitrile solution containing RGFP531 (10 μM) internal standard, 0.1% formic acid and phenylglyoxol (400 μM). The formic acid and phenylglyoxal is used for the identification and quantification of OPD as mentioned above. Pipette up and down a few times to ensure a complete stop of reaction. Transfer all the solution into a 1.5 ml tube, vortex thoroughly, and centrifuge at 14000 RPM at 4° C. for 5 minutes to precipitate cell debris. Transfer the 150 μL of supernatant to vials for analysis on LC-MS/MS.
LC-MS/MS parameters for RGFP compounds and metabolites including OPD: LC-MS/MS Parameters for API 2000 QTrap: System: HPLC 1100; Column: Gemini C18, 5 μM 4.6×50 mm; Column Temp: Ambient; MS: API 2000 QTrap (MI mode); Mobile Phase A: HPLC water with 0.05% Formic Acid; Mobile Phase B: Acetonitrile with 0.05% Formic Acid.

HDAC2 = HDAC2 (Homo sapiens (Human), UniProt Q92769); assay: HDAC enzyme inhibition assay (Fluor-de-Lys), HDAC2; assay type: biochemical; conditions: 2 hours pre-incubation
Procedure: (§1) The HDAC activity inhibition assay was performed as follows to determine the ability of a test compound to inhibit HDAC enzymatic activity. Serial dilutions of HDAC inhibitors were prepared in HDAC assay buffer (25 mM Tris/HCl, pH 8.0, 137 mM NaCl, 2.7 mM KCl, 1 mM MgCl2, pH 8) in 96-well assay plates (Fisher scientific, #07-200-309) and were pre-incubated for 2 hours at room temperature in the presence of 125 μg/ml BSA and purified HDAC1 (BPS Bioscience, San Diego, Calif., #50051), HDAC2 (BPS Bioscience, #50053), or HDAC3/NcoR2 (BPS Bioscience, #50003) at concentrations of 1.25, 1.32, and 0.167 μg/mL, respectively. Following pre-incubation, Fluor-de-Lys™ substrate (Enzo Life Sciences, Plymouth Meeting, Pa., BML-KI104-0050) was added to a final concentration of 10 μM and plates were further incubated for 30 minutes at room temperature. The enzymatic reaction was stopped by addition of Trichostatin A (Sigma-Aldrich, St Louis, Mo., #T8552, final concentration: 100 nM) and trypsin (MP Biomedicals, Solon, Ohio, #02101179) was added to reach a final concentration of 100 μg/mL. After a 15 minute incubation at room temperature, fluorescence was recorded using a Spectramax M2 fluorometer (Molecular Devices, Sunnyvale, Calif.) with excitation at 365 nm and emission at 460 nm. IC50 values were calculated by using a sigmoidal dose-response (variable slope) equation in GraphPad Prism® 5 for Windows (GraphPad Software, La Jolla, Calif.). Results for selected compounds in the HDAC activity inhibition assay are presented in Table 5 (IC50 ranges: IA>20 μM, A<1 μM, 1<B<5 μM, 5<C<10 μM, 10<D<20 μM, ND: not determined).

HDAC1 = HDAC1 (Homo sapiens (Human), UniProt Q13547); assay: HDAC enzyme inhibition assay (Fluor-de-Lys), HDAC1; assay type: biochemical; conditions: 2 hours pre-incubation
Procedure: as §1

[3] = Brain penetration studies; assay type: in vivo; conditions: C57/BL6/J, mouse; mice, s.c. 5 or 50 mg/kg or i.v. 5 mg/kg; Cmax(brain)/Cmax(plasma); read-out: BPR (brain/plasma ratio)
Procedure: Test compounds were prepared at either 0.5 mg/ml or 5 mg/ml in 30% hydroxypropyl-β-cyclodextrin, 100 mM sodium acetate pH 5.5, 5% DMSO. C57/BL6/J mice were dosed s.c. at 5 mg/kg or 50 mg/kg, or i.v. at 5 mg/kg. Animals were euthanized at pre-dose, 5, 15, 30 min, 1, 2 and 4 hours post-dose and plasma and brain obtained. Three animals per dose per time points were used. The levels of compound in the plasma and brain were determined by standard LC/MS/MS methods. Brain/plasma ratio (BPR) was calculated as the ratio of the Cmax(brain)/Cmax(plasma). The results are shown in Table 5, where IA corresponds to a BPR less than 0.1, D is between 0.1 and 0.2, C is 0.2 to 0.5, B comprises 0.5 to 1 and A is greater than 1.

HDAC3/NcoR2 = HDAC3/NcoR2 (Homo sapiens (Human), UniProt O15379); assay: HDAC enzyme inhibition assay (Fluor-de-Lys), HDAC3/NcoR2; assay type: biochemical; conditions: HDAC3/NcoR2, 2 hours pre-incubation
Procedure: as §1

[4] = parameters: dose or concentration left out as unconfirmed; conditions: male rats, oral, 78 weeks, cited from earlier work
[5] = rats, subcutaneous, cited from earlier work

Chain of HDAC1 (Q13547 whole entry): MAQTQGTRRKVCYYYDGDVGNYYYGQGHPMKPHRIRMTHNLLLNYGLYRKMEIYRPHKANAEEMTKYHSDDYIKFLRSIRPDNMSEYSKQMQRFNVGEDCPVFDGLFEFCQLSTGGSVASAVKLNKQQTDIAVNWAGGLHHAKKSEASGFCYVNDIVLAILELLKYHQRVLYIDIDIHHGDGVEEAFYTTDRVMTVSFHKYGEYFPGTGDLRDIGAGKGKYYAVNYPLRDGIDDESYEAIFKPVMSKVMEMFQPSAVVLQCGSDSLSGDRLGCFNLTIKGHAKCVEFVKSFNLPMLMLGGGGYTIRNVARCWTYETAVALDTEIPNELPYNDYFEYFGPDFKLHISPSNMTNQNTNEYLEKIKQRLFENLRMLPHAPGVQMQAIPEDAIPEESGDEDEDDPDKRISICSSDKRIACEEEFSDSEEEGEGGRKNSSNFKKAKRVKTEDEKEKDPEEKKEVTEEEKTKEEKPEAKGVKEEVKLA
Chain of HDAC3/NcoR2 (O15379 whole entry): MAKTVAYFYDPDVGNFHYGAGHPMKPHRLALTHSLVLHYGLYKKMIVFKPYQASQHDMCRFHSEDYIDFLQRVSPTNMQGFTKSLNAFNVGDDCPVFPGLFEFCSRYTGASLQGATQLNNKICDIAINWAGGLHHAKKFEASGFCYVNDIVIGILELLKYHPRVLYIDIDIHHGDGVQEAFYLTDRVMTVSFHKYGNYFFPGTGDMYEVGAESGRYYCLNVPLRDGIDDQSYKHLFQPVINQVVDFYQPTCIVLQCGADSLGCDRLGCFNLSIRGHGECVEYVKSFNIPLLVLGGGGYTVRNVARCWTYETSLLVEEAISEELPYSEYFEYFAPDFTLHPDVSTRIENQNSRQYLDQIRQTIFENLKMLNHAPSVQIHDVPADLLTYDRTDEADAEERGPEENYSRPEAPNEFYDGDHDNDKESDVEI
Chain of HDAC3/NcoR2 (Q9Y618 395-489 partner): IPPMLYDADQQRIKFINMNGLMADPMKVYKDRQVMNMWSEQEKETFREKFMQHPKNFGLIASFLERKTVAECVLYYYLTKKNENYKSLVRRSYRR
Chain of HDAC2 (Q92769 whole entry): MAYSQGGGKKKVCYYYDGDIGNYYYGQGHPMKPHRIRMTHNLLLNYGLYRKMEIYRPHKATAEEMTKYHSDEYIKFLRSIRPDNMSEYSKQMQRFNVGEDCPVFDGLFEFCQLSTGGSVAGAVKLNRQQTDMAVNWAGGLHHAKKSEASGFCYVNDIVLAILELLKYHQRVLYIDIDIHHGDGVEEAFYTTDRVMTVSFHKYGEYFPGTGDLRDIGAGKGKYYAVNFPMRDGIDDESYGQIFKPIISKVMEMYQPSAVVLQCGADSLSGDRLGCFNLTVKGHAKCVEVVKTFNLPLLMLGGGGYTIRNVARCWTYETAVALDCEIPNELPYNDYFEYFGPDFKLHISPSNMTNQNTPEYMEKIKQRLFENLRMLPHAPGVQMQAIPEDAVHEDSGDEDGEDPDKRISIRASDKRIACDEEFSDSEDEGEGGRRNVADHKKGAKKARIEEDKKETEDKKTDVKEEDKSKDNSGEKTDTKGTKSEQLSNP

SMILES | Acid Stability % Left 24 hr [1] | % left 6H Hum hep [2] | OPD [2] | pIC50 (HDAC2) | pIC50 (HDAC1) | Kp [3] | pIC50 (HDAC3/NcoR2) | rats with liver tumors ([4]; 8000 low dose) | rats with liver tumors ([4]; 16000 high dose) | tumors ([5]; 45 mg/kg every second day for 11 months) | tumors ([5]; 90 mg/kg every second day for 5 months)
Nc1cc(F)ccc1NC(=O)c1ccc2c(cnn2Cc2ccc(F)c(F)c2)c1 [Compound A10] | C (C covers 20 to 40%) | C (30%>C>10%) | No OPD | > 6.00 | > 6.00 | > 1 | > 6.00 | – | – | – | –
Nc1ccccc1NC(=O)c1ccc2c(cnn2CC2CC2)c1 [Compound A11] | B (B is between 40 and 60%) | B (50%>B>30%) | No OPD | > 6.00 | > 6.00 | 0.2 to 0.5 | > 6.00 | – | – | – | –
Nc1ccccc1N [OPD, o-phenylenediamine] | – | – | – | – | – | – | – | 5 out of 17 | 5 out of 16 | not detected | not detected
